# Measurements from article PMC10647805 (2023).
# How the values were obtained:
# [1] = test system: c-KIT1 (DNA, G4) GGGAGGGCGCTGGGAGGAGGG; experiment: UV-Vis titration; conditions: K+ (100 mM KF, 10 mM potassium phosphate); PBS pH 7.4, ca. 20 °C; 2 μM DNA; 1:1 fit
# [2] = test system: dsDNA (DNA, hairpin, HEG linker (non-nucleotide loop) between 10 and 11) TATAGCTATATATAGCTATA; experiment: UV-Vis titration; conditions: K+ (100 mM KF, 10 mM potassium phosphate); PBS pH 7.4, ca. 20 °C; 5 μM DNA; 1:1 fit; per base
# [3] = test system: c-KIT1 (DNA, G4) GGGAGGGCGCTGGGAGGAGGG; experiment: variable-temperature CD; conditions: K+ (100 mM KF, 10 mM potassium phosphate); PBS pH 7.4; 2 μM DNA, 5 equivalents (10 μM) compound
# [4] = test system: h-TELO (DNA, G4) AGGGTTAGGGTTAGGGTTAGGGT; experiment: variable-temperature CD; conditions: K+ (100 mM KF, 10 mM potassium phosphate); PBS pH 7.4; 5 μM DNA, 5 equivalents (25 μM) compound
# [5] = test system: TBA (DNA, G4) GGTTGGTGTGGTTGG; experiment: variable-temperature CD; conditions: K+ (100 mM KF, 10 mM potassium phosphate); PBS pH 7.4; 5 μM DNA, 5 equivalents (25 μM) compound
# [6] = test system: h-TELO (DNA, G4) AGGGTTAGGGTTAGGGTTAGGGT; experiment: UV-Vis titration; conditions: K+ (100 mM KF, 10 mM potassium phosphate); PBS pH 7.4, ca. 20 °C; 5 μM DNA; 1:1 fit
# [7] = test system: dsDNA (DNA, hairpin, HEG linker (non-nucleotide loop) between 10 and 11) TATAGCTATATATAGCTATA; experiment: variable-temperature CD; conditions: K+ (100 mM KF, 10 mM potassium phosphate); PBS pH 7.4; 5 μM DNA, 5 equivalents (25 μM) compound; per base
SMILES,KD [1],KD [2],ΔTm [3],ΔTm [4],ΔTm [5],KD [6],ΔTm [7]
CC(C)(C)OC(=O)N[C@@H](CN1C(=O)c2ccc3c4c(ccc(c24)C1=O)C(=O)N(C[C@H](NC(=O)OC(C)(C)C)C(=O)O)C3=O)C(=O)O,2.6 ± 0.4 µM,65.2 ± 35.9 µM,5.4 °C,2.4 °C,0.1 °C,–,–
CC(C)(C)OC(=O)N[C@H](CN1C(=O)c2ccc3c4c(ccc(c24)C1=O)C(=O)N(C[C@@H](NC(=O)OC(C)(C)C)C(=O)O)C3=O)C(=O)O,8.0 ± 2.5 µM,30.7 ± 6.9 µM,1.7 °C,–,–,–,–
CC(C)C[C@@H](CC(=O)O)N1C(=O)c2ccc3c4c(ccc(c24)C1=O)C(=O)N([C@H](CC(=O)O)CC(C)C)C3=O,–,23.6 ± 8.4 µM,–,1.7 °C,−0.1 °C,11.0 ± 3.1 µM,–
CC(C)C[C@H](CC(=O)O)N1C(=O)c2ccc3c4c(ccc(c24)C1=O)C(=O)N([C@@H](CC(=O)O)CC(C)C)C3=O,–,50.2 ± 15.4 µM,−0.9 °C,–,–,13.6 ± 3.4 µM,–
C[C@@H](CC(=O)O)N1C(=O)c2ccc3c4c(ccc(c24)C1=O)C(=O)N([C@@H](C)CC(=O)O)C3=O,–,–,–,0.2 °C,–,–,−2.1 °C
O=C(O)[C@@H](O)CN1C(=O)c2ccc3c4c(ccc(c24)C1=O)C(=O)N(C[C@H](O)C(=O)O)C3=O,–,–,3.2 °C,–,–,–,–
O=C(O)[C@@H](O)[C@@H](Cc1ccccc1)N1C(=O)c2ccc3c4c(ccc(c24)C1=O)C(=O)N([C@H](Cc1ccccc1)[C@H](O)C(=O)O)C3=O,–,–,–,–,0.8 °C,–,−0.1 °C
